Drawing on article PMC10824666 (Nature Cancer, 2023), this text covers remaining activity for three compounds.

Holding throughout (assay): biochemical
Set-up in all cases: Eurofins DiscoverX kinase panel, competitive binding assay at 1 uM, percent of DMSO control
What all share (details): competitive binding, percent of DMSO control

The target of one experiment is T1, GRK1 (Homo sapiens, UniProt Q15835).
T1 sequence (Q15835 1-563): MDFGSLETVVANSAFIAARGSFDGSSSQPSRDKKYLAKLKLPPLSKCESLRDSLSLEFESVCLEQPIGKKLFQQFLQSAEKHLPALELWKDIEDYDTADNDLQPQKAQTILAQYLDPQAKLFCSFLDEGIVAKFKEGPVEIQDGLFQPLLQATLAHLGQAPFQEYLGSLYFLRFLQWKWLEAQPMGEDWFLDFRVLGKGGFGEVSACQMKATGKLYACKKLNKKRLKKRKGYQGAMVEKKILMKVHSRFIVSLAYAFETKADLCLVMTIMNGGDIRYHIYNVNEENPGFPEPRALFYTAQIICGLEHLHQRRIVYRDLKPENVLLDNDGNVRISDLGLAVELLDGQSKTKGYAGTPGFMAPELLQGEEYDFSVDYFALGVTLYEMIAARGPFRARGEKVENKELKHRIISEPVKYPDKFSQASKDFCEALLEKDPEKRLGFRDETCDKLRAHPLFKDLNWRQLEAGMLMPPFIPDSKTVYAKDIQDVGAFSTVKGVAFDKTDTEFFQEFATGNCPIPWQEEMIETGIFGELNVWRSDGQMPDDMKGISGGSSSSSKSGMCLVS
In short, it runs like this: (§1)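 Competitive binding assay across a 96-kinase panel with KIF18A compounds at 1 µM; values given as percentage of control (POC), single experiment.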

For the next experiment, the target named is T2, PKD2 (Homo sapiens, UniProt Q9BZL6).
T2 construct: gene PRKD2
T2 sequence (Q9BZL6 1-878): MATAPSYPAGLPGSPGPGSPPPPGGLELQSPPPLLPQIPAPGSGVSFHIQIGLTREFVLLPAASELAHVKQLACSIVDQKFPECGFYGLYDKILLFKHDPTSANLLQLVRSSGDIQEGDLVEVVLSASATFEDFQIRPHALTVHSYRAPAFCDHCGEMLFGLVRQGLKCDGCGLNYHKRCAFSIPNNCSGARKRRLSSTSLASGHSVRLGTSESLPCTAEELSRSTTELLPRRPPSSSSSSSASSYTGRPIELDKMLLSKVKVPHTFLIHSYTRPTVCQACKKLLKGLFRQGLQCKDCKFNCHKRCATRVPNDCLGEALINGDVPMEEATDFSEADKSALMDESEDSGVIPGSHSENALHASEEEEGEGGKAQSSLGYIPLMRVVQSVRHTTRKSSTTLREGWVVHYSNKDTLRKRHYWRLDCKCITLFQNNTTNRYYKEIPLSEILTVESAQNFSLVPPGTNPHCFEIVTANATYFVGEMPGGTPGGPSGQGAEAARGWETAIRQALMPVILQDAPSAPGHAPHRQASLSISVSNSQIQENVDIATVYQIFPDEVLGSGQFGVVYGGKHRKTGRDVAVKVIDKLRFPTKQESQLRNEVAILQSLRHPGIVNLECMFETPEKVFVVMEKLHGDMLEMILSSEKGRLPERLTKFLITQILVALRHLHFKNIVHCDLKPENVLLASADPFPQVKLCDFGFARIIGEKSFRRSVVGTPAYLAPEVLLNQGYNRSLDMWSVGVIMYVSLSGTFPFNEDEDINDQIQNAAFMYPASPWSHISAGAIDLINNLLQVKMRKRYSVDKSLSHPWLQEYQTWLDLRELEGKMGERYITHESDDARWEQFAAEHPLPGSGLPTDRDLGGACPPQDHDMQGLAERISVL
Put shortly: as §1

The next experiment concerns the target mTOR (Homo sapiens, UniProt P42345). Put shortly: as §1
Setting [1] is: read-out: Kinome Profiling performed by Eurofins DiscoverX / AM-0277, 1.0 µM / POC.
[2] abbreviates: read-out: Kinome Profiling performed by Eurofins DiscoverX / AM-1882, 1.0 µM / POC.
Setting [3] is: read-out: Kinome Profiling performed by Eurofins DiscoverX / AM-5308, 1.0 µM / POC.

The structures appear in SMILES notation. Read-outs that look alike come from different tables or passages of the source.

For the compound `CC(C)(CO)Nc1ccc(C(=O)Nc2cccc(S(=O)(=O)C3CCCC3)c2)c(N2CCC3(CC2)CC3)n1` [AM-0277], the remaining activity at 1 µM at GRK1 (setting [1]) amounted to 81%; at PKD2 (setting [1]) it was 100%; at mTOR (setting [1]), 100%.
Consider `CC(C)(C)NS(=O)(=O)c1cccc(NC(=O)c2ccc(S(=O)(=O)NC(C)(C)C)cc2N2CCC3(CC2)CC3)c1` [AM-1882], for which the results for the remaining activity at 1 µM on GRK1 (setting [2]), on PKD2 (setting [2]) and at mTOR (setting [2]) were 98.5%, 64.5% and 98.5%, respectively.
Take `C[C@@H]1CN(c2cccc(NC(=O)c3ccc(NS(=O)(=O)CCO)cc3N3CCC4(CC3)CC4)n2)CCO1` [AM-5308]: the remaining activity at 1 µM at GRK1 (setting [3]) came to 91%; on PKD2 (setting [3]), 100%; at mTOR (setting [3]), 100%.
